From paper PMC9585939, “Unveiling a family of spiro-β-lactams with anti-HIV and antiplasmodial activity via phosphine-catalyzed [3+2] annulation of 6-alkylidene-penicillanates and allenoates” (Frontiers in Chemistry, 2022)
Entries after “also recorded” stand apart in the source; their conditions may differ.

Key:
HIV-1 SG3.1 = assay: microbe, parasite or virus in culture; conditions: for inhibition at 25 µg/mL / IC50 / IC90: Human immunodeficiency virus 1, TZM-bl; for inhibition at 25 µg/mL: read-out: MPI (%) 25 μg/mL; for Therapeutic index (CC50/IC50) / anti-HIV activity (in words): HIV-1; for Therapeutic index (CC50/IC50): CC50 in TZM-bl cells; for IC50 / IC90: 48 h; for IC50: read-out: IC50 HIV-1, TZM-bl cells, 48 h; for IC90: read-out: IC90 HIV-1
Excerpt: The HIV-1 SG3.1 is a reference subtype B strain that uses the CXCR4 coreceptor. It was obtained by transfection of HEK293T cells with pSG3.1 plasmid using jetPRIME transfection reagent (Polyplus-transfection SA, Illkirch, France), according to the instructions of the manufacturer.
Briefly, TZM-bl cells were infected with 200 TCID50 of HIV-1 or HIV-2 in the presence of serial-fold dilutions of the compounds in the growth medium, supplemented with diethylaminoethyl-dextran (DEAE-dextran). After 48 h of infection, luciferase expression was quantified with Pierce Firefly Luc One-Step Glow Assay Kit (ThermoFisher Scientific, Rockford, United States), according to the instructions of the manufacturer. For each compound dilution, the assay was set up in triplicate wells. Virus controls, cell controls, and inhibitors controls (drugs with a known action against each virus) were employed.

[1] = Cellular viability assay (alamarBlue) in TZM-bl cells; format: cell-based; conditions: human, 50% cytotoxic concentration
Method: Before the antiviral activity screening, all spirocyclopentene-β-lactams were assayed for their in vitro cytotoxic activity (CC50) in TZM-bl cells (Table 4).
TZM-bl cells (AIDS Research and Reference Reagent Program, National Institutes of Health, United States) were cultured in complete growth medium consisting of Dulbecco’s Minimal Essential Medium (DMEM) supplemented with 10% fetal bovine serum (FBS), 100 U/ml of penicillin–streptomycin (Gibco/Invitrogen, United States), 1 mM of sodium pyruvate (Gibco/Invitrogen, United States), 2 mM of L-glutamine (Gibco/Invitrogen, United States), and 1 mM of non-essential amino acids (Gibco/Invitrogen, United States). Cell cultures were maintained at 37°C in 5% CO2.
The in vitro cytotoxicity of test compounds was evaluated in TZM-bl cells using alamarBlue cell viability reagent (Life Technologies, United States), according to the instructions of the manufacturer. The cells were cultured in the presence and absence of serial-fold dilutions of the test compounds. Each dilution of each compound was performed in triplicate wells. Medium controls (only growth medium), cell controls (cells without test compound), and cytotoxicity controls (a compound that kills cells) were employed in each assay.

## CC1(C)SC2N(C(=O)C23C(C(=O)OCc2ccccc2)=CCC3C(=O)c2ccc(Cl)cc2)C1C(=O)OC(c1ccccc1)c1ccccc1 (stereo not shown) [Compound 13b, (1’R,2’R)-Benzhydryl spiro[(2-(4-chlorobenzoyl)-5-benzyloxycarbonylcyclopent-4-ene)-1’,6-penicillanate]]
HIV-1 SG3.1
  inhibition at 25 µg/mL: 0%
other
  melting point: 116.3 to 118.3 °C
[1]
  CC50: 63.7 µM

## Cc1ccc(COC(=O)C2=CCC3(C(=O)N4C(C(=O)OC(c5ccccc5)c5ccccc5)C(C)(C)SC43)C2C(=O)c2ccccc2)cc1 (stereo not shown) [Compound 9j, (1’R,2’R)-Benzhydryl spiro[(2-benzoyl-3-(4-methylbenzyloxycarbonyl)cyclopent-3-ene)-1’,6-penicillanate]]
HIV-1 SG3.1
  Therapeutic index (CC50/IC50): 674.49
  IC50: 0.089 µM
  IC90: 0.209 µM
  inhibition at 25 µg/mL: 93%
other
  melting point: 59 to 60.8 °C
[1]
  CC50: 60 µM

## CC1(C)SC2N(C(=O)C23CC=C(C(=O)OCc2ccc([N+](=O)[O-])cc2)C3C(=O)c2ccccc2)C1C(=O)OC(c1ccccc1)c1ccccc1 (stereo not shown) [Compound 9h, (1’R,2’R)-Benzhydryl spiro[(2-benzoyl-3-(4-nitrobenzyloxycarbonyl)cyclopent-3-ene)-1’,6-penicillanate]]
HIV-1 SG3.1
  anti-HIV activity (in words): inactive; also recorded: total loss of antiviral activity
  inhibition at 25 µg/mL: 0%
other
  melting point: 81.2 to 83.1 °C
[1]
  CC50: 56 µM

## CC1(C)SC2N(C(=O)C23CC=C(C(=O)OCc2ccccc2)C3C(=O)c2cc(F)cc(F)c2)C1C(=O)OC(c1ccccc1)c1ccccc1 (stereo not shown) [Compound 12f, (1’R,2’R)-Benzhydryl spiro[(2-(3,5-difluorobenzoyl)-3-benzyloxycarbonylcyclopent-3-ene)-1’,6-penicillanate]]
HIV-1 SG3.1
  Therapeutic index (CC50/IC50): 531.34
  IC50: 0.132 µM
  IC90: 0.585 µM
  inhibition at 25 µg/mL: 88%
other
  melting point: 69.5 to 71.5 °C
[1]
  CC50: 70.1 µM

## CC1(C)SC2N(C(=O)C23CC=C(C(=O)Oc2ccccc2)C3C(=O)c2ccccc2)C1C(=O)OC(c1ccccc1)c1ccccc1 (stereo not drawn) [Compound 9a, (1′R,2′R)-Benzhydryl spiro[(2-benzoyl-3-phenoxycarbonylcyclopent-3-ene)-1′,6-penicillanate]]
HIV-1 SG3.1
  anti-HIV activity (in words): lack of antiviral activity
  inhibition at 25 µg/mL: 0%
other
  melting point: > 137 °C (dec.)
[1]
  CC50: 215 µM

## Cc1ccc(COC(=O)C2=CCC3(C(=O)N4C(C(=O)OC(c5ccccc5)c5ccccc5)C(C)(C)SC43)C2C(=O)c2ccc(Br)cc2)cc1 (stereo not shown) [Compound 14h, (1’R,2’R)-Benzhydryl spiro[(2-(4-bromobenzoyl)-3-(4-methylbenzyloxycarbonyl)cyclopent-3-ene)-1’,6-penicillanate]]
HIV-1 SG3.1
  Therapeutic index (CC50/IC50): 649.73
  IC50: 0.111 µM
  IC90: 0.297 µM
  inhibition at 25 µg/mL: 93%
other
  melting point: 74.9 to 76.9 °C
[1]
  CC50: 72.1 µM

## CC1(C)SC2N(C(=O)C23CC=C(C(=O)OCc2ccccc2)C3C(=O)c2ccc3ccccc3c2)C1C(=O)OC(c1ccccc1)c1ccccc1 (stereo not shown) [Compound 12h, (1’R,2’R)-Benzhydryl spiro[(2-naphthoyl-3-benzyloxycarbonylcyclopent-3-ene)-1’,6-penicillanate]]
HIV-1 SG3.1
  inhibition at 25 µg/mL: 0%
other
  melting point: 81.5 to 83.5 °C
[1]
  CC50: 73.6 µM

## CC1(C)SC2N(C(=O)C23CC=C(C(=O)OCc2ccc(Cl)cc2)C3C(=O)c2ccccc2)C1C(=O)OC(c1ccccc1)c1ccccc1 (stereo not shown) [Compound 9k, (1’R,2’R)-Benzhydryl spiro[(2-benzoyl-3-(4-chlorobenzyloxycarbonyl)cyclopent-3-ene)-1’,6-penicillanate]]
HIV-1 SG3.1
  Therapeutic index (CC50/IC50): 148.11
  IC50: 0.366 µM
  inhibition at 25 µg/mL: 84%
other
  melting point: 49.8 to 51.5 °C
[1]
  CC50: 54.1 µM

## CC1(C)SC2N(C(=O)C23CC=C(C(=O)Oc2ccc4ccccc4c2)C3C(=O)c2ccccc2)C1C(=O)OC(c1ccccc1)c1ccccc1 (stereo not shown) [Compound 9d, (1’R,2’R)-Benzhydryl spiro[(2-benzoyl-3-(2-naphthoxycarbonyl)cyclopent-3-ene)-1’,6-penicillanate]]
HIV-1 SG3.1
  inhibition at 25 µg/mL: 54%
[1]
  CC50: 38 µM

## CC1(C)SC2N(C(=O)C23CC=C(C(=O)OCc2ccccc2)C3C(=O)c2ccc(C(F)(F)F)cc2)C1C(=O)OC(c1ccccc1)c1ccccc1 (stereo not shown) [Compound 12e, (1’R,2’R)-Benzhydryl spiro[(2-(4-trifluoromethylbenzoyl)-3-benzyloxycarbonylcyclopent-3-ene)-1’,6-penicillanate]]
HIV-1 SG3.1
  Therapeutic index (CC50/IC50): 49.39
  IC50: 1.3 µM
  IC90: 1.5 µM
  inhibition at 25 µg/mL: 76%
other
  melting point: 134.1 to 135.5 °C
[1]
  CC50: 64.4 µM

## CC1(C)SC2N(C(=O)C23C(C(=O)OCc2ccccc2)=CCC3C(=O)c2ccc(C(F)(F)F)cc2)C1C(=O)OC(c1ccccc1)c1ccccc1 (stereo not shown) [Compound 13e, (1’R,2’R)-Benzhydryl spiro[(2-(4-trifluoromethylbenzoyl)-5-benzyloxycarbonylcyclopent-4-ene)-1’,6-penicillanate]]
HIV-1 SG3.1
  inhibition at 25 µg/mL: 0%
other
  melting point: 141.1 to 143.1 °C
[1]
  CC50: 54.7 µM

## CC1(C)SC2N(C(=O)C23CC=C(C(=O)OCc2ccccc2)C3C(=O)c2ccc([N+](=O)[O-])cc2)C1C(=O)OC(c1ccccc1)c1ccccc1 (stereo not shown) [Compound 12d, (1’R,2’R)-Benzhydryl spiro[(2-(4-nitrobenzoyl)-3-benzyloxycarbonylcyclopent-3-ene)-1’,6-penicillanate]]
HIV-1 SG3.1
  Therapeutic index (CC50/IC50): 297.75
  IC50: 0.178 µM
  IC90: 0.413 µM
  inhibition at 25 µg/mL: 80%
other
  melting point: 122 to 123.7 °C
[1]
  CC50: 53 µM

## COc1cccc(OC(=O)C2=CCC3(C(=O)N4C(C(=O)OC(c5ccccc5)c5ccccc5)C(C)(C)SC43)C2C(=O)c2ccccc2)c1 (stereo not shown) [Compound 9c, (1’R,2’R)-Benzhydryl spiro[(2-benzoyl-3-(3-methoxyphenoxycarbonyl)cyclopent-3-ene)-1’,6-penicillanate]]
HIV-1 SG3.1
  inhibition at 25 µg/mL: 0%
other
  melting point: 67.8 to 69.7 °C
[1]
  CC50: 58.1 µM

## CC1(C)SC2N(C(=O)C23C(C(=O)OCc2ccccc2)=CCC3C(=O)c2cc(F)cc(F)c2)C1C(=O)OC(c1ccccc1)c1ccccc1 (stereo not shown) [Compound 13f, (1’R,2’R)-Benzhydryl spiro[(2-(3,5-difluorobenzoyl)-5-benzyloxycarbonylcyclopent-4-ene)-1’,6-penicillanate]]
HIV-1 SG3.1
  inhibition at 25 µg/mL: 0%
other
  melting point: 134.8 to 136.8 °C
[1]
  CC50: 58.8 µM

## CC1(C)SC2N(C(=O)C23C(C(=O)OCc2ccccc2)=CCC3C(=O)c2ccco2)C1C(=O)OC(c1ccccc1)c1ccccc1 (stereo not shown) [Compound 13i, (1’R,2’R)-Benzhydryl spiro[(2-furoyl-5-benzyloxycarbonylcyclopent-4-ene)-1’,6-penicillanate]]
HIV-1 SG3.1
  inhibition at 25 µg/mL: 0%
other
  melting point: 112.8 to 114.8 °C
[1]
  CC50: 61.2 µM

## CC(C)CCOC(=O)C1=CCC2(C(=O)N3C(C(=O)OC(c4ccccc4)c4ccccc4)C(C)(C)SC32)C1C(=O)c1ccccc1 (stereo not shown) [Compound 9f, (1’R,2’R)-Benzhydryl spiro[(2-benzoyl-3-isopentoxycarbonylcyclopent-3-ene)-1’,6-penicillanate]]
HIV-1 SG3.1
  inhibition at 25 µg/mL: 21%
[1]
  CC50: 53.4 µM

## CC(COC(=O)C1=CCC2(C(=O)N3C(C(=O)OC(c4ccccc4)c4ccccc4)C(C)(C)SC32)C1C(=O)c1ccccc1)c1ccccc1 (stereo not shown) [Compound 9o, (1’R,2’R)-Benzhydryl spiro[(2-benzoyl-3-(1-phenylpropan-2-yloxycarbonyl)cyclopent-3-ene)-1’,6-penicillanate]]
HIV-1 SG3.1
  inhibition at 25 µg/mL: 0%
[1]
  CC50: 44.7 µM

## Cc1ccc(COC(=O)C2=CCC3(C(=O)N4C(C(=O)OC(c5ccccc5)c5ccccc5)C(C)(C)SC43)C2C(=O)c2ccc(F)cc2)cc1 (stereo not shown) [Compound 14b, (1’R,2’R)-Benzhydryl spiro[(2-(4-fluorobenzoyl)-3-(4-methylbenzyloxycarbonyl)cyclopent-3-ene)-1’,6-penicillanate]]
HIV-1 SG3.1
  IC50: 0.146 µM
  IC90: 0.338 µM
  inhibition at 25 µg/mL: 95%
[1]
  CC50: 78.3 µM

## CCCCCOC(=O)C1=CCC2(C(=O)N3C(C(=O)OC(c4ccccc4)c4ccccc4)C(C)(C)SC32)C1C(=O)c1ccccc1 (stereo not shown) [Compound 9e, (1’R,2’R)-Benzhydryl spiro[(2-benzoyl-3-pentoxycarbonylcyclopent-3-ene)-1’,6-penicillanate]]
HIV-1 SG3.1
  inhibition at 25 µg/mL: 44%
[1]
  CC50: 60.3 µM
